Results from ChEMBL document CHEMBL1240428, “Conventional and microwave assisted synthesis of some new N-[(4-oxo-2-substituted aryl -1, 3-thiazolidine)-acetamidyl]-5-nitroindazoles and its antimicrobial activity” (2010).
Converted amounts (≈) assume the structure as drawn.

How the values were obtained:
Escherichia coli [1] = assay: Antibacterial activity against Escherichia coli at 50 ug/mL; assay type: functional; details: read-out: IZ
Escherichia coli [2] = assay: Antibacterial activity against Escherichia coli at 100 ug/mL; assay type: functional; details: read-out: IZ
Bacillus subtilis [3] = assay: Antibacterial activity against Bacillus subtilis at 50 ug/mL; assay type: functional; details: read-out: IZ
Bacillus subtilis [4] = assay: Antibacterial activity against Bacillus subtilis at 100 ug/mL; assay type: functional; details: read-out: IZ
Aspergillus flavus [5] = assay: Antifungal activity against Aspergillus flavus at 50 ug/mL; assay type: functional; details: read-out: IZ
Aspergillus flavus [6] = assay: Antifungal activity against Aspergillus flavus at 100 ug/mL; assay type: functional; details: read-out: IZ
Penicillium citrinum [7] = assay: Antifungal activity against Penicillium citrinum at 50 ug/mL; assay type: functional; details: read-out: IZ
Penicillium citrinum [8] = assay: Antifungal activity against Penicillium citrinum at 100 ug/mL; assay type: functional; details: read-out: IZ
Fusarium oxysporum [9] = assay: Antifungal activity against Fusarium oxysporum at 50 ug/mL; assay type: functional; details: read-out: IZ
Fusarium oxysporum [10] = assay: Antifungal activity against Fusarium oxysporum at 100 ug/mL; assay type: functional; details: read-out: IZ
Escherichia coli [11] = assay: Antibacterial activity against Escherichia coli; assay type: functional
Bacillus subtilis [12] = assay: Antibacterial activity against Bacillus subtilis; assay type: functional
Aspergillus flavus [13] = assay: Antifungal activity against Aspergillus flavus; assay type: functional
Penicillium citrinum [14] = assay: Antifungal activity against Penicillium citrinum; assay type: functional
Fusarium oxysporum [15] = assay: Antifungal activity against Fusarium oxysporum; assay type: functional
Salmonella typhi [16] = assay: Antibacterial activity against Salmonella typhi
Salmonella typhi [17] = assay: Antibacterial activity against Salmonella typhi at 50 ug/mL; details: read-out: IZ
Salmonella typhi [18] = assay: Antibacterial activity against Salmonella typhi at 100 ug/mL; details: read-out: IZ

| Compound | MIC (Escherichia coli [11]) [µg/mL] | MIC (Bacillus subtilis [12]) [µg/mL] | MIC (Aspergillus flavus [13]) [µg/mL] | MIC (Penicillium citrinum [14]) [µg/mL] | MIC (Fusarium oxysporum [15]) [µg/mL] | MIC (Salmonella typhi [16]) [µg/mL] | zone of inhibition at 50 µg/mL (Escherichia coli [1]) [mm] | zone of inhibition at 100 µg/mL (Escherichia coli [2]) [mm] | zone of inhibition at 50 µg/mL (Bacillus subtilis [3]) [mm] | zone of inhibition at 100 µg/mL (Bacillus subtilis [4]) [mm] | zone of inhibition at 50 µg/mL (Aspergillus flavus [5]) [mm] | zone of inhibition at 100 µg/mL (Aspergillus flavus [6]) [mm] | zone of inhibition at 50 µg/mL (Penicillium citrinum [7]) [mm] | zone of inhibition at 100 µg/mL (Penicillium citrinum [8]) [mm] | zone of inhibition at 50 µg/mL (Fusarium oxysporum [9]) [mm] | zone of inhibition at 100 µg/mL (Fusarium oxysporum [10]) [mm] | zone of inhibition at 50 µg/mL (Salmonella typhi [17]) [mm] | zone of inhibition at 100 µg/mL (Salmonella typhi [18]) [mm] |
| --- | --- | --- | --- | --- | --- | --- | --- | --- | --- | --- | --- | --- | --- | --- | --- | --- | --- | --- |
| O=C(Cn1ncc2cc([N+](=O)[O-])ccc21)N/N=C/c1cccc(Br)c1 | 18 (≈ 44.8 µM) | 21 (≈ 52.2 µM) | 18 (≈ 44.8 µM) | 25 (≈ 62.2 µM) | 15 (≈ 37.3 µM) | 18 (≈ 44.8 µM) | 17.4 | 20.1 | 15.1 | 18.3 | 17.8 | 20.9 | 14.5 | 19 | 18.8 | 20.7 | 15.9 | 20 |
| CN[C@@H]1[C@H](O[C@H]2[C@H](O[C@H]3[C@H](O)[C@@H](O)[C@H](N=C(N)N)[C@@H](O)[C@@H]3N=C(N)N)O[C@@H](C)[C@]2(O)C=O)O[C@@H](CO)[C@H](O)[C@H]1O [STREPTOMYCIN] | 8 (≈ 13.8 µM) | 12 (≈ 20.6 µM) | – | – | – | 10 (≈ 17.2 µM) | 26 | 30 | 23 | 27 | – | – | – | – | – | – | 25 | 28 |
| O=C(Cn1ncc2cc([N+](=O)[O-])ccc21)NN1C(=O)CSC1c1ccccc1[N+](=O)[O-] (configuration not stated) | 11 (≈ 24.9 µM) | 15 (≈ 33.9 µM) | 11 (≈ 24.9 µM) | 15 (≈ 33.9 µM) | 9 (≈ 20.3 µM) | 13 (≈ 29.4 µM) | 23.5 | 26.9 | 20 | 25.5 | 23.6 | 26.1 | 21.4 | 25.6 | 24.2 | 27 | 21.2 | 25 |

Now from value to molecule, other results behind:

| MIC (Escherichia coli [11]) [µg/mL] | MIC (Bacillus subtilis [12]) [µg/mL] | MIC (Aspergillus flavus [13]) [µg/mL] | MIC (Penicillium citrinum [14]) [µg/mL] | MIC (Fusarium oxysporum [15]) [µg/mL] | MIC (Salmonella typhi [16]) [µg/mL] | Compound | zone of inhibition at 50 µg/mL (Escherichia coli [1]) [mm] | zone of inhibition at 100 µg/mL (Escherichia coli [2]) [mm] | zone of inhibition at 50 µg/mL (Bacillus subtilis [3]) [mm] | zone of inhibition at 100 µg/mL (Bacillus subtilis [4]) [mm] | zone of inhibition at 50 µg/mL (Aspergillus flavus [5]) [mm] | zone of inhibition at 100 µg/mL (Aspergillus flavus [6]) [mm] | zone of inhibition at 50 µg/mL (Penicillium citrinum [7]) [mm] | zone of inhibition at 100 µg/mL (Penicillium citrinum [8]) [mm] | zone of inhibition at 50 µg/mL (Fusarium oxysporum [9]) [mm] | zone of inhibition at 100 µg/mL (Fusarium oxysporum [10]) [mm] | zone of inhibition at 50 µg/mL (Salmonella typhi [17]) [mm] | zone of inhibition at 100 µg/mL (Salmonella typhi [18]) [mm] |
| --- | --- | --- | --- | --- | --- | --- | --- | --- | --- | --- | --- | --- | --- | --- | --- | --- | --- | --- |
| 10 (≈ 22.6 µM) | 15 (≈ 33.9 µM) | 11 (≈ 24.9 µM) | 14 (≈ 31.6 µM) | 8 (≈ 18.1 µM) | 12 (≈ 27.1 µM) | O=C(Cn1ncc2cc([N+](=O)[O-])ccc21)NN1C(=O)CSC1c1cccc([N+](=O)[O-])c1 (configuration not stated) | 24.6 | 28 | 21 | 26.1 | 24.7 | 27 | 22.3 | 26.5 | 25.1 | 28.4 | 22 | 25.8 |
| 32 (≈ 136 µM) | 43 (≈ 183 µM) | 32 (≈ 136 µM) | 38 (≈ 162 µM) | 28 (≈ 119 µM) | 36 (≈ 153 µM) | NNC(=O)Cn1ncc2cc([N+](=O)[O-])ccc21 | 7 | 10 | 5 | 7 | 7 | 10 | 6 | 8.9 | 8.3 | 10.5 | 6 | 8 |
| 17 (≈ 47.5 µM) | 18 (≈ 50.3 µM) | 17 (≈ 47.5 µM) | 20 (≈ 55.9 µM) | 13 (≈ 36.3 µM) | 17 (≈ 47.5 µM) | O=C(Cn1ncc2cc([N+](=O)[O-])ccc21)N/N=C/c1ccc(Cl)cc1 | 19 | 21.9 | 16.8 | 20.1 | 20 | 22.7 | 16.8 | 21.4 | 20.8 | 22.9 | 18 | 21.7 |
| 25 (≈ 60.8 µM) | 40 (≈ 97.2 µM) | 23 (≈ 55.9 µM) | 32 (≈ 77.8 µM) | 20 (≈ 48.6 µM) | 30 (≈ 72.9 µM) | Cc1ccc(C2SCC(=O)N2NC(=O)Cn2ncc3cc([N+](=O)[O-])ccc32)cc1 (configuration not stated) | 12 | 14.8 | 9 | 12.2 | 11.1 | 14 | 10 | 13.2 | 12.9 | 15.4 | 10.1 | 13.3 |
